Laboratory results published in patent US20120045393A1 (priority 2009, published 2012).
Like-named read-outs stand apart in the source and are kept apart here. Non-standard residues stand in square brackets, D forms with d. Residues, ends and D or L forms follow the SMILES beside them. *: point of attachment. X1 = NC(=O)NNC(=O)[C@@H]1CCCN1C[C@H](Cc1ccc(C(=O)c2ccccc2)cc1)N*; DOTA = O=C(O)CN1CCN(CC(=O)O)CCN(CC(=O)*)CCN(CC(=O)O)CC1; Bpa = N[C@@H](Cc1ccc(C(=O)c2ccccc2)cc1)C(=O)O; d2Nal = N[C@H](Cc1ccc2ccccc2c1)C(=O)O; pGlu = O=C1CC[C@@H](C(=O)O)N1; DO3A10CM = not defined here; Bpa4 = non-natural residue; Ampt4 = not defined here; azaGly = NNC(=O)O

Key:
liver homogenate = settings: female Tac:NCr:Foxn1^nu/nu mice, 37° C., up to 60 min
[1] = In vitro metabolic stability in mouse liver homogenate at 37° C.; type: in vitro ADME; settings: for remaining at 1 h, 0.3 mg/mL: female, Tac:NCr:Foxn1nu/nu, mouse, tissue homogenate, pH 7.2
Procedure: Livers from 10 female Tac:NCr:Foxn1^nu/nu mice were excised, rinsed with ice cold PBS (no Ca^++ or Mg^++) and weighed. The tissues were minced with scissors in Petri dishes on ice with Tris buffered saline (Pierce BupH™ Tris buffered saline packs, #28376; 25 mM Tris, 150 mM NaCl, pH 7.2). After mincing, the tissues were dounce homogenized, and the total volume adjusted with ice cold Tris buffer (4 mL for every gram of excised tissue). The homogenate was centrifuged at ˜4000×g for 10 min at 4° C. The supernatants were aliquoted into Eppendorf tubes on ice (200 and 100 μl volumes) and stored at −80° C. Kidney homogenates were similarly prepared. […] The mixture was centrifuged at 4° C. for 20 min at 20,000×g to precipitate the protein; 10 μL (˜7.6 μCi) of the supernatant was injected into the HPLC for the analysis. […] Peaks at these retention times were also observed in the in vivo plasma sample (FIG. 1). […] After 0 and 60 min, the sample was removed from the incubator, immediately cooled on ice and 2 μL of 10 mM EDTA and 0.2 mL of ice-cooled MeOH were added, mixing after each addition. The proteins in the sample were separated by centrifugation at 14,000 rpm for 20 min. The supernatant was harvested and, in the samples spiked with the ^177Lu-analog, the radioactivity was measured using a Capintec dose calibrator to determine recovery. The sample was then analyzed by HPLC. […] After 0 and 60 min, the sample was removed from the incubator, immediately cooled on ice and 2 μL of 10 mM EDTA and 0.24 mL of ice-cooled methanol was added, mixing after each addition. The proteins in the sample were separated by centrifugation at 14,000 rpm for 20 min. The supernatant was collected and analyzed by LC/MS as described earlier herein.

[2] = system: LHRH binding sites on human ovarian cancer cells (EFO-27);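 also: Cell-associated radioactivity on confluent EFO-27 monolayers in 96-well plates, measured by microplate scintillation counting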
[3] = system: PC-3 (human prostate cancer) cells; assay: Internalization/efflux studies in PC-3 cells; type: cell-based; set-up: Cell associated activity at 2 h % Efflux / Cell associated activity at 0 h % Memb / Cell associated activity at 2 h % Memb: concentration or dose not given beside the values
Procedure: (§1) Internalization/Efflux Studies: The internalization and efflux studies were carried out following the general procedure. Basically, ^177Lu-LHRH II or ^125I-LHRH II ([^125I-Tyr^8]BRU-2477) (75 uL, 3.0 μCi/mL) was added to the EFO-27 or PC-3 cells. The cells were incubated for 40 min at 37° C. The unbound radioactivity was washed off (4×). Following addition of fresh medium, the cells were further incubated for up to 2 h. At various time points (15, 30, 60 & 120 min) the distribution of radioactivity (membrane-bound, internalized, and efflux) was determined
To determine whether prostate cancer cells (PC-3) behave differently from EFO-27 cells, internalization and efflux studies were carried out with ^177Lu-BRU-2813 using both cell lines.

EFO-27 cells = assay: Internalization/efflux studies in EFO-27 cells; type: cell-based, human
Procedure: as §1
The internalization and efflux of several Lu-177 labeled LHRH II analogs in EFO-27 cells have been investigated. Basically, following pre-incubation of cells with ^177Lu-LHRH II samples, the binding buffer containing the ^177Lu was replaced with fresh media without complex. The extent of initial internalization (T=0), the amount of radioactive material that remained internalized and the efflux at 0-120 min were determined. The results are shown in FIGS. 21a-f and 22a-c and in Table 25.

[4] = biological target: LHRH binding sites on EFO-27 human ovarian cancer cells (human); assay: competition with [125I-Tyr8]BRU-2477 on EFO-27 cells
[5] = biological target: LHRH receptor (LHRH binding sites) on EFO-27 human ovarian cancer cells (human); assay: competition with [125I-Tyr8]BRU-2477 for binding to EFO-27 cells
[6] = biological target: LHRH receptor (LHRH binding sites) on EFO-27 human ovarian cancer cells (human); assay: competition with [125I-Tyr8]BRU-2477, EFO-27 cells
[7] = Table 19: analogs used in the stabilization studies
[8] = EFO-27 cells, competition with [125I-Tyr8]BRU-2477, 90 min

DO3A10CM-Dnal2-Arg-Trp-Ser-His-Darg-Trp-Bpa4-Ψ(CH2N)Pro-azaGly-NH2
not cleaved (liver homogenate): 100 ± 0 % remaining after 60 min; no metabolism was observed

DO3A10CM-Dnal2-Arg-Trp-Ser-His-Darg-Trp-Bpa4-Flp4-azaGly-NH2
fragment found (liver homogenate): lutetium complex of BRU-3064 (DO3A10CM-Dnal2-Arg-Trp-Ser-His-Darg-Trp-Bpa-OH)

N=C(N)NCCC[C@@H](NC(=O)[C@H](Cc1c[nH]cn1)NC(=O)[C@H](CO)NC(=O)[C@H](Cc1c[nH]c2ccccc12)NC(=O)[C@H](Cc1c[nH]cn1)NC(=O)[C@@H]1CCC(=O)N1)C(=O)N[C@@H](Cc1c[nH]c2ccccc12)C(=O)N[C@@H](Cc1ccc(O)cc1)C(=O)N1C[C@@H](N)C[C@H]1C(=O)NNC(N)=O [BRU-3123] (HELM PEPTIDE1{[Glp].H.W.S.H.[dR].W.Y.[N[C@H]1C[C@@H](C(=O)[*:2])N([*:1])C1].[O=C(NN[*:1])[*:2]].[am]}$$$$V2.0)
remaining at 1 h, 0.3 mg/mL [1]: 100% | EC50 [2, 7]: 990 nM

N=C(N)NCCC[C@H](NC(=O)[C@@H](Cc1ccc2ccccc2c1)NC(=O)CN1CCN(CC(=O)O)CCN(CC(=O)O)CCN(CC(=O)O)CC1)C(=O)N[C@@H](Cc1c[nH]c2ccccc12)C(=O)N[C@@H](CO)C(=O)N[C@@H](Cc1c[nH]cn1)C(=O)N[C@H](CCCNC(=N)N)C(=O)N[C@@H](Cc1c[nH]c2ccccc12)C(=O)N[C@@H](Cc1ccc(C(=O)c2ccccc2)cc1)C(=O)N1CSC[C@H]1C(N)=O [BRU-3072]
metabolism in liver homogenate ([1]; 37° C. for 60 min, Lu complexes of DO3A10CM peptides, unlabeled BRU-2477 derivatives): no metabolism was observed | times more potent than the comparator analog ([2]; BRU-2441 vs BRU-2439, BRU-2666 vs Sar1 analog, BRU-3072 vs Pro9 analog): ~2.5

DO3A10CM-Dnal2-Arg-Trp-Ser-His-Darg-Trp-Bpa4-Ampt4-azaGly-NH2
not cleaved (liver homogenate): 98.7 ± 0.1 % remaining after 60 min; no metabolism was observed

DO3A10CM-Dnal2-Arg-Trp-Ser-His-Darg-Trp-Bpa4-Aze-azaGly-NH2
fragment found (liver homogenate): lutetium complex of BRU-3064 (DO3A10CM-Dnal2-Arg-Trp-Ser-His-Darg-Trp-Bpa-OH)

N=C(N)NCCC[C@@H](NC(=O)[C@H](Cc1c[nH]cn1)NC(=O)[C@H](CO)NC(=O)[C@H](Cc1c[nH]c2ccccc12)NC(=O)[C@H](Cc1c[nH]cn1)NC(=O)[C@@H]1CCC(=O)N1)C(=O)N[C@@H](Cc1c[nH]c2ccccc12)C(=O)N[C@@H](Cc1ccc(O)cc1)C(=O)N1CCC[C@H]1C(=O)NNC(N)=O [BRU-2477, pGlu-His-Trp-Ser-His-Darg-Trp-Tyr-Pro-azaGly-NH2, reference compound] (HELM PEPTIDE1{[Glp].H.W.S.H.[dR].W.Y.P.[O=C(NN[*:1])[*:2]].[am]}$$$$V2.0)
remaining at 1 h, 0.3 mg/mL [1]: 11.9 ± 2.4% | EC50 [2, 8]: 740 nM | EC50 [2, 7]: 840 nM

pGlu-His-Trp-Ser-His-Darg-Trp-Tyr-Ampc4-azaGly-NH2
not cleaved (liver homogenate): 100 ± 0 % remaining after 60 min; no metabolism

N=C(N)NCCC[C@H](NC(=O)[C@@H](Cc1ccc2ccccc2c1)NC(=O)CN1CCN(CC(=O)O)CCN(CC(=O)O)CCN(CC(=O)O)CC1)C(=O)N[C@@H](Cc1c[nH]c2ccccc12)C(=O)N[C@@H](CO)C(=O)N[C@@H](Cc1c[nH]cn1)C(=O)N[C@H](CCCNC(=N)N)C(=O)N[C@@H](Cc1c[nH]c2ccccc12)C(=O)N[C@@H](Cc1ccc(C(=O)c2ccccc2)cc1)CN1CCC[C@H]1C(=O)NNC(N)=O [BRU-3081] ({DOTA}-[d2Nal]RWSH[dR]W-X1)
metabolism in liver homogenate [1]: no metabolism was observed | EC50 [2, 7]: 300 nM

N=C(N)NCCC[C@H](NC(=O)[C@@H](Cc1ccc2ccccc2c1)NC(=O)CN1CCN(CC(=O)O)CCN(CC(=O)O)CCN(CC(=O)O)CC1)C(=O)N[C@@H](Cc1c[nH]c2ccccc12)C(=O)N[C@@H](CO)C(=O)N[C@@H](Cc1cnc[nH]1)C(=O)N[C@H](CCCNC(=N)N)C(=O)N[C@@H](Cc1c[nH]c2ccccc12)C(=O)N[C@@H](Cc1ccc(C(=O)c2ccccc2)cc1)C(=O)N1CCC[C@H]1C(=O)NNC(N)=O [BRU-2813, DO3A10CM-Dnal2-Arg-Trp-Ser-His-Darg-Trp-Bpa-Pro-azaGly-NH2]
more potency than the comparator analog ([2]; BRU-2813 vs BRU-2666, BRU-2964 vs BRU-2813): 30% | EC50 [2, 8]: 330 nM | EC50 [2, 7]: 420 nM | Cell associated activity at 0 h % Efflux ([3]; 0 h): 12.5% | Cell associated activity at 0 h % Intern ([3]; 0 h, internalized): 26.2% | Cell associated activity at 0 h % Memb ([3]; 0 h, membrane bound): 61.9% | Cell associated activity at 2 h % Efflux ([3]; 2 h): 75.7% | Cell associated activity at 2 h % Intern ([3]; 2 h, internalized): 7.5% | Cell associated activity at 2 h % Memb ([3]; 2 h, membrane bound): 16.8% | Bound % ([3]; of added): 19.26% | Bound ([3]; per well): 44.3 fmol | Cell associated activity at 0 h % Efflux (EFO-27 cells; 0 h): 8.8% | Cell associated activity at 0 h % Intern (EFO-27 cells; 0 h, internalized): 24.1% | Cell associated activity at 0 h % Memb (EFO-27 cells; 0 h, membrane bound): 66.8% | Cell associated activity at 2 h % Efflux (EFO-27 cells; 2 h): 75.3% | Cell associated activity at 2 h % Intern (EFO-27 cells; 2 h, internalized): 7.4% | Cell associated activity at 2 h % Memb (EFO-27 cells; 2 h, membrane bound): 17.3% | Bound % (EFO-27 cells; of added): 19.10% | Bound (EFO-27 cells; per well): 40.5 fmol

N=C(N)NCCC[C@@H](NC(=O)[C@H](Cc1c[nH]cn1)NC(=O)[C@H](CO)NC(=O)[C@H](Cc1c[nH]c2ccccc12)NC(=O)[C@H](Cc1c[nH]cn1)NC(=O)[C@@H]1CCC(=O)N1)C(=O)N[C@@H](Cc1c[nH]c2ccccc12)C(=O)N[C@@H](Cc1ccc(O)cc1)CN1CCC[C@H]1C(=O)NNC(N)=O [BRU-3122]
remaining at 1 h, 0.3 mg/mL [1]: 100% | EC50 [2, 7]: 3130 nM

[pGlu]HWSH[dR]WYP[azaGly]-NH2 [BRU-2477]
EC50 [4]: 740 nM | EC50 [5]: 840 nM

XRWSHXWXXX (N-terminal DO3A10CM; Dnal2 at 1; Darg at 6; Bpa4 at 8; Aze at 9; azaGly-NH2 at 10) [BRU-2993]
EC50 [4]: 380 nM | EC50 [5]: 380 nM | EC50 [6]: 380 nM

B1: BRU-2994 (peptide)
peptide: XRWSHXWXXX
modifications: DO3A10CM on N-terminus; AA1 Dnal2; AA6 Darg; AA8 Bpa4; AA9 Flp4; AA10 azaGly-NH2
EC50 [4]: 600 nM | EC50 [5]: 600 nM | EC50 [6]: 600 nM

DO3A10CM-[d2Nal]RWSH[dR]W[Bpa][Ampt4][azaGly]-NH2 (reading uncertain; also: printed as DO3A10CM-Dnal2-Arg-Trp-Ser-His-Darg-Trp-Bpa4-Ampt4-azaGly-NH2) [BRU-2995]
EC50 [4]: 410 nM | EC50 [5]: 410 nM | EC50 [6]: 410 nM

XRWSHXWXXX (N-terminal DO3A10CM; Dnal2 at 1; Darg at 6; Bpa4 at 8; Pip at 9; azaGly-NH2 at 10) [BRU-2996]
EC50 [4]: 350 nM | EC50 [5]: 350 nM | EC50 [6]: 350 nM

XRWSHXWXXX (N-terminal DO3A10CM; Dnal2 at 1; Darg at 6; Bpa4 at 8; Thz at 9; azaGly-NH2 at 10) [BRU-3072]
EC50 [4]: 160 nM | fold improved binding against the Pro9 analog (BRU-2813) [4]: 2.5 fold | EC50 [5]: 160 nM | EC50 [6]: 160 nM

[pGlu]HWSH[dR]WYP[azaGly]-NH2 (also: reduced amide bond Ψ(CH2N) between Tyr8 and Pro9) [BRU-3122]
EC50 [5]: 3130 nM

B2: BRU-3081 (peptide)
peptide: XRWSHXWXPX
modifications: as printed: DO3A10CM-Dnal2-Arg-Trp-Ser-His-Darg-Trp-Bpa4-Ψ(CH2N)-Pro-azaGly-NH2 (reduced amide bond between 8 and 9)
EC50 [5]: 300 nM | EC50 [6]: 300 nM

XRWSHXW (as printed: DO3A10CM-Dnal2-Arg-Trp-Ser-His-Darg-Trp-OH) [BRU-3046]
EC50 [5]: 15800 nM

B3: BRU-3064 (peptide)
peptide: DO3A10CM-[d2Nal]RWSH[dR]W[Bpa4]-OH
modifications: reading uncertain; also: printed as DO3A10CM-Dnal2-Arg-Trp-Ser-His-Darg-Trp-Bpa4-OH
EC50 [5]: 720 nM
